According to patent publication US7696218B2, “Substituted 1,3-dialkyl-2,4-dioxo-6-(arylamino)-1,2,3,4-tetrahydropyrimidine-5-hydroxamic acid inhibitors of MAPK/ERK kinase” (Takeda San Diego, Inc., priority 2006, dated 2010):

Target: T1, MEK2 (Homo sapiens, UniProt P36507, S222E/S226D)
T1 construct: 6-histidine tag (N); made in house; host or cells: Spodoptera frugiperda Sf9 (baculovirus) for MEK2; E. coli for ERK1
Assay: MEK2 inhibition assay, fluorescence polarization with IMAP beads (ERK1 / FI-Erktide substrate)
Assay type: biochemical
Conditions: 4 nM MEK2, 25 nM ERK1, 400 μM ATP, 500 nM FI-Erktide, 1% DMSO, 22 min at room temperature; values given as ranges; read-out: IC50 of Exemplified Compounds Against MEK2
Source text: For MEK2, DNA encoding residues 1-400 (S222E/S226D) of the full-length sequence of the human enzyme may be amplified by PCR and cloned into pFastbac (Invitrogen), which incorporates a 6-histidine tag at the N-terminus. The two mutations, S222E and S226D, may be obtained by quick change PCR. SEQ ID NO: 3 corresponds to residues 1-400 with mutations S222E/S226D, and with the N-terminal 6-histidine tag and SEQ ID NO: 4 is the DNA sequence that was used to encode SEQ ID NO: 3.
Recombinant baculovirus incorporating the MEK1 and MEK2 constructs may be generated by transposition using the Bac-to-Bac system (Invitrogen). High-titer viral stocks may be generated by infection of Spodoptera frugiperda Sf9 cells; the expression of recombinant protein may be carried out by infection of Spodoptera frugiperda Sf9 (Invitrogen) in 5L Wave Bioreactors (Wave Biotech).
Recombinant protein may be isolated from cellular extracts by passage over ProBond resin (Invitrogen). Partially purified extracts of all MEK1 may then be further purified by high pressure liquid chromatography over a SEC2000 gel filtration resin. The purity of MEK1 and MEK2 proteins may be determined on denaturing SDS-PAGE gel. Purified MEK1 and MEK2 may then be concentrated to a final concentration of 3.4 mg/ml and 5.4 mg/ml, respectively. The proteins may be either stored at −78° C. in a buffer containing 50 mM TRIS-HCl pH 7.6, 250 mM NaCl, 0.1 mM EDTA and 0.125 mM TCEP or at −20° C. in the presence of glycerol (final concentration of glycerol at 50%).
The inhibitory properties of compounds relative to MEK1 or MEK2 may be determined using a black 384-well-plate format under the following reaction conditions: 50 mM HEPES pH 7.3, 10 mM NaCl, 10 mM MgCl2, 0.01% Brij35, 1 nM MEK1 or 4 nM MEK2, 25 nM ERK1, 400 μM ATP, 500 nM IPTTPITTYFFFK-5FAM-COOH (FI-Erktide), and 1% DMSO. Reaction product is determined quantitatively by fluorescent polarization using progressive IMAP beads from Molecular Devices.
The assay reaction may be initiated as follows: 2 μl of the mixture of 1.5 μM FI-Erktide and 75 nM ERK with 2 μl of inhibitor (2 fold serial dilutions for 11 data points for each inhibitor) containing 3% DMSO were added to each well of the plate, followed by the addition of 2 μl of the mixture of 3 nM MEK1 or 12 nM MEK2 and 1200 μM ATP to initiate the reaction (final enzyme concentration was 1 nM for MEK1 or 4 nM for MEK2). The reaction mixture may then be incubated at room temperature for 22 min, and quenched and developed by addition of 20 μl of 1:200 dilution of progressive IMAP beads (Molecular Devices) in 80% buffer A, 20% bufferB and 0.003% Tween 20. Fluorescence polarization of the resulting reaction mixtures may be measured after a 1 hour incubation at room temperature.
IC50 values may be calculated by non-linear curve fitting of the compound concentrations and fluorescence polarization signal to the standard IC50 equation.

T1 sequence (P36507 with tags, fused parts or gaps S222E/S226D): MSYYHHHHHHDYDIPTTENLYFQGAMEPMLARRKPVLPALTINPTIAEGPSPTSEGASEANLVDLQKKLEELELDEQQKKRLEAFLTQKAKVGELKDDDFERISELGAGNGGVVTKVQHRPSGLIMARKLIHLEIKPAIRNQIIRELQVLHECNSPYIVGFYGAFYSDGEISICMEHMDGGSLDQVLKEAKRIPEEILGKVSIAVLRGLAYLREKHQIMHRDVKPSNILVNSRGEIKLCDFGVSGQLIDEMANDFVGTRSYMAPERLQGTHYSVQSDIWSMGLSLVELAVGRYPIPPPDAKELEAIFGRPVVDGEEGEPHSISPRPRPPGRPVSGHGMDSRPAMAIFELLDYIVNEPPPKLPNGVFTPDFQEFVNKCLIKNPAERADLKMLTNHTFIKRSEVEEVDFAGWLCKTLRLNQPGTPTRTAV

Row | Compound | IC50
1 | COCC(=O)c1c(Nc2ccc(I)cc2F)n(C)c(=O)n(C)c1=O [Example 12, 6-(2-Fluoro-4-iodophenylamino)-5-(2-methoxyacetyl)-1,3-dimethylpyrimidine-2,4(1H,3H)-dione] | 2.5 to 25 µM
2 | Cn1c(Nc2ccc(I)cc2F)c(C(=O)CO)c(=O)n(C)c1=O [Example 15, 6-(2-Fluoro-4-iodophenylamino)-5-(2-hydroxyacetyl)-1,3-dimethylpyrimidine-2,4(1H,3H)-dione] | 0.501 to 2.5 µM
3 | Cn1c(Nc2ccc(I)cc2F)c(C(=O)NCCO)c(=O)n(C)c1=O [Example 55, 6-(2-Fluoro-4-iodophenylamino)-N-(2-hydroxyethyl)-1,3-dimethyl-2,4-dioxo-1,2,3,4-tetrahydropyrimidine-5-carboxamide] | 0.501 to 2.5 µM
4 | Cc1cc(I)ccc1Nc1c(C(N)=O)c(=O)n(C)c(=O)n1C [Example 17, 6-(4-Iodo-2-methylphenylamino)-1,3-dimethyl-2,4-dioxo-1,2,3,4-tetrahydropyrimidine-5-carboxamide] | 0.501 to 2.5 µM
5 | CCOC(=O)c1c(Nc2ccc(Br)cc2Cl)n(C)c(=O)n(C)c1=O [Example 22, Ethyl 6-(4-bromo-2-chlorophenylamino)-1,3-dimethyl-2,4-dioxo-1,2,3,4-tetrahydropyrimidine-5-carboxylate] | > 25 µM
6 | CC(=O)OCC(=O)c1c(Nc2ccc(I)cc2F)n(C)c(=O)n(C)c1=O [Example 14, 2-(6-(2-Fluoro-4-iodophenylamino)-1,3-dimethyl-2,4-dioxo-1,2,3,4-tetrahydropyrimidin-5-yl)-2-oxoethyl acetate] | > 25 µM
